Where only a bound is given, the exact number is not on record here.

Assay [1] relates to Haemonchus contortus. Put plainly: Method B: Haemonchus contortus in vivo in Mongolian gerbil, oral gavage. As to conditions: 72 h, Mongolian gerbils, read-out: reduction in nematode infestation; for inhibition in vivo at 100 mg/kg: necropsy 3 days after treatment. Also on record: species or system Mongolian gerbil (Meriones unguiculatus). The method, then:
Method B: Screening Method to Test Activity of Compounds Against Haemonchus contortus In Vivo in Mongolian Gerbil (Meriones unguiculatus).
Mongolian gerbils, at least five weeks old, were immunosuppressed and artificially infected with ca. 1000 ensheathed Haemonchus contortus third instar larvae. Six days after infection, the Mongolian gerbils were treated by oral gavage with the test compounds, dissolved in a mixture of 2 parts DMSO and 1 part polyethylene glycol (PEG400), at doses of 100 mg/kg and dissolved in pure polyethylene glycol (PEG400) at doses of 10 and 1 mg/kg. Jirds treated only with the placebo (2 parts DMSO and 1 part PEG400 or pure PEG400) served as controls. On day 9 (3 days after treatment) the jirds were euthanized and necropsied for recovery of parasites from the stomach. Efficacy was calculated as the average % reduction in the number of worms in each test group compared with the average number of worms from the control group. […] Compound numbers 1.001, 1.008, 1.012, 1.013 and 1.014 provided at least 95% reduction in nematode infestation in Mongolian gerbils treated by oral gavage with test article at a dose of 100 mg/kg. Compound numbers 1.012, 1.033, 1.064, 2.008, 2.037, 2.038, 2.040, 2.041, 3.001 provided at least 95% reduction in nematode infestation at a dose of 10 mg/kg. Compound numbers 1.094, 2.048, 3.001, 3.007 and 3.009, provided at least 95% reduction in nematode infestation at a dose of 1 mg/kg. Compound numbers 3.005, 3.006, 3.011, 3.012, 3.017 and 3.019, provided at least 95% reduction in nematode infestation at a dose of 0.5 mg/kg.

In assay [2] the test system is Trichostrongylus colubriformis. Put plainly: Method D: screening against Trichostrongylus colubriformis, L1 larvae in microtitre plate. As to conditions: 96 h, 4 days assessment, read-out: motility inhibition; for inhibition at 0.15 ppm: test concentration 0.15 ppm; for inhibition at 0.01 ppm: test concentration 0.01 ppm; for inhibition at 0.0025 ppm: test concentration 0.0025 ppm. The method, then: Method D: Screening Method to Test Activity of Compounds Against Trichostrongylus colubriformis.
Twenty L1 Trichostrongylus colubriformis larvae were added to wells of a microtitre plate containing a nutrient medium and the test compound in DMSO. The microtitre plate was then held at 27° C. where the L1 larvae were allowed to develop. An analysis was conducted at 4 days to determine successful development to the L3 stage. Larvae exposed to DMSO and no test compound served as controls. Compounds numbers 1.008, 1.014, 1.042, 1.047, 1.048, 1.073, 2.001, 2.003 and 2.020, gave at least 90% motility inhibition at a test concentration of 0.15 ppm at the 4 days assessment. Compounds numbers 1.001, 1.003, 1.007, 1.011, 1.037, 1.038, 1.043, 1.056, 1.066, 1.070, 1.071, 2.012 and 2.016, gave at least 90% motility inhibition at a test concentration of 0.04 ppm at the 4 days assessment. Compounds numbers 1.012, 1.020, 1.021, 1.033, 1.034, 1.039, 1.064, 1.065, 2.008, 2.009 and 3.005 gave at least 90% motility inhibition at a test concentration of 0.01 ppm at the 4 days assessment. Compounds numbers 1.094, 2.040, 2.048, 2.049, 3.006, 3.009, 3.011 and 3.012 gave at least 90% motility inhibition at a test concentration of 0.0025 ppm at the 4 days assessment.

Assay [3] deals with Haemonchus contortus. The experiment in a line: Method A: screening against Haemonchus contortus, L1 larvae in microtitre plate. The note with it: 96 h, 4 days assessment, read-out: motility inhibition; for inhibition at 0.15 ppm: test concentration 0.15 ppm; for inhibition at 0.01 ppm: test concentration 0.01 ppm; for inhibition at 0.0025 ppm: test concentration 0.0025 ppm. The text has this: Method A: Screening Method to Test Activity of Compounds Against Haemonchus contortus.

Assay [4] relates to Microfilaria of Dirofilaria immitis. Put plainly: Method F: microfilaria of Dirofilaria immitis in microtitre plate. As to conditions: test concentration 50 ppm, assessment at 24 hours, read-out: motility inhibition. As for the experimental part: Method F: Screening Method to Test Activity of Compounds Against Microfilaria of Dirofilaria immitis.
Four hundred to six hundred microfilaria of Dirofilaria immitis were added to wells of a microtitre plate containing buffer and the test compound in DMSO. The microtitre plate was then held at 37° C. in an environment containing 5% CO2. An assessment was conducted at 24 hours to determine survival of the microfilaria. Microfilaria exposed to DMSO and no test compound served as controls. Compounds numbers 1.003, 1.012, 1.013, 1.064, 1.086, 1.087, 1.090, 1.094, 2.043, 2.046, 2.047, 2.048, 2.049, 3.005, 3.006, 3.009, 3.011, 3.012, 3.017, 3.019 and 3.023 gave at least 90% motility inhibition at a test concentration of 50 ppm.

Usually inhibition stands for the share of the control response that was lost under treatment. As to `CC(C#N)(Cn1nc2ccc(C(F)(F)F)cc2n1)NC(=O)c1ccc(OC(F)(F)F)cc1` (centres unmarked) [Compound 1.008, N-[1-Cyano-1-methyl-2-(5-trifluoromethyl-2H-benzotriazol-2-yl)ethyl]-4-trifluoromethoxybenzamide], the inhibition in vivo at 100 mg/kg with Haemonchus contortus [1] is at least 95%. For the same compound, the inhibition at 0.15 ppm (in assay [2]; with Haemonchus contortus [3]) was at least 90% throughout.

As for `CC(C#N)(Cn1nc2cc(Cl)cc(Cl)c2n1)NC(=O)c1ccc(OC(F)(F)F)cc1` (centres unmarked) [Compound 1.012, N-[1-Cyano-2-(4,6-dichloro-2H-benzotriazol-2-yl)-1-methylethyl]-4-trifluoromethoxybenzamide], in the assay with Haemonchus contortus [1], the inhibition in vivo at 10 mg/kg is at least 95% and the inhibition in vivo at 100 mg/kg was at least 95%. Moreover, in assay [4], the inhibition at 50 ppm is at least 90%. In addition, the inhibition at 0.01 ppm in assay [2] is at least 90%. Moreover, in the assay with Haemonchus contortus [3], the inhibition at 0.01 ppm was at least 90%.

For the compound `CC(C#N)(Cn1nc2cc(C(F)(F)F)cc(Cl)c2n1)NC(=O)c1ccc(OC(F)(F)F)cc1` (centres unmarked) [Compound 1.014, N-[2-(4-Chloro-6-trifluoromethyl-2H-benzotriazol-2-yl)-1-cyano-1-methylethyl]-4-trifluoromethoxybenzamide], the inhibition in vivo at 100 mg/kg in the assay with Haemonchus contortus [1] is at least 95%. The inhibition at 0.15 ppm (in assay [2]; with Haemonchus contortus [3]) was at least 90% each time.

`Cc1cc(Cl)cc2nn(CC(C)(C#N)NC(=O)c3ccc(OC(F)(F)F)cc3)nc12` (centres unmarked) [Compound 1.033, N-[−2-(6-Chloro-4-methyl-2H-benzotriazol-2-yl)-1-cyano-1-methylethyl]-4-trifluoromethoxybenzamide]: the inhibition in vivo at 10 mg/kg with Haemonchus contortus [1] was at least 95%. Also, the inhibition at 0.01 ppm (in assay [2]; with Haemonchus contortus [3]) was at least 90% throughout.

As to `CC(C#N)(Cn1nc2c(Cl)cc(Cl)c(Cl)c2n1)NC(=O)c1ccc(OC(F)(F)F)cc1` (centres unmarked) [Compound 1.064, N-[1-Cyano-1-methyl-2-(4,5,7-trichloro-2H-benzotriazol-2-yl)-ethyl]-4-trifluoromethoxybenzamide], the inhibition in vivo at 10 mg/kg with Haemonchus contortus [1] was at least 95%. In assay [4], the inhibition at 50 ppm was at least 90%. In addition, the inhibition at 0.01 ppm in assay [2] is at least 90%. In addition, the inhibition at 0.0025 ppm with Haemonchus contortus [3] is at least 90%.

Regarding `CC(C#N)(Cn1nc2c(Cl)cc(Cl)c(Br)c2n1)NC(=O)c1ccc(OC(F)(F)F)cc1` (centres unmarked) [Compound 1.086, N-[2-(4-Bromo-5,7-dichloro-2H-benzotriazol-2-yl)-1-cyano-1-methylethyl]-4-trifluoromethoxybenzamide], the inhibition at 50 ppm in assay [4] was at least 90%. Further, the inhibition at 0.0025 ppm in the assay on Haemonchus contortus [3] was at least 90%.

Take `CC(C#N)(Cn1nc2c(Cl)cc(Cl)c(F)c2n1)NC(=O)c1ccc(OC(F)(F)F)cc1` (centres unmarked) [Compound 1.090, N-[1-Cyano-2-(5,7-dichloro-4-fluoro-2H-benzotriazol-2-yl)-1-methylethyl]-4-trifluoromethoxybenzamide]: in assay [4], the inhibition at 50 ppm is at least 90%. Besides, in the assay with Haemonchus contortus [3], the inhibition at 0.0025 ppm is at least 90%.

In the case of `Cc1cc(Br)c(F)c2nn(CC(C)(C#N)NC(=O)c3ccc(OC(F)(F)F)cc3)nc12` (centres unmarked) [Compound 1.094, N-[2-(5-bromo-4-fluoro-7-methyl-2H-benzotriazol-2-yl)-1-cyano-1-methylethyl]-4-trifluoromethoxybenzamide], the inhibition in vivo at 1 mg/kg with Haemonchus contortus [1] is at least 95%. In addition, in assay [4], the inhibition at 50 ppm is at least 90%. Further, the inhibition at 0.0025 ppm (in assay [2]; in the assay on Haemonchus contortus [3]) was at least 90% in each case.

As for `COc1c2ccc(Cl)cc2nn1CC(C)(C#N)NC(=O)c1ccc(OC(F)(F)F)cc1` (centres unmarked) [Compound 2.008, N-[2-(6-Chloro-3-methoxy-2H-indazol-2-yl)-1-cyano-1-methylethyl]-4-trifluoromethoxybenzamide], the inhibition in vivo at 10 mg/kg with Haemonchus contortus [1] was at least 95%. Also, in assay [2], the inhibition at 0.01 ppm is at least 90%. Further, the inhibition at 0.0025 ppm in the assay on Haemonchus contortus [3] is at least 90%.

As to `CC(C#N)(Cn1cc2c(Cl)cc(Cl)cc2n1)NC(=O)c1ccc(OC(F)(F)F)cc1` (centres unmarked) [Compound 2.040, N-[1-Cyano-2-(4,6-dichloro-2H-indazol-2-yl)-1-methylethyl]-4-trifluoromethoxybenzamide], the inhibition in vivo at 10 mg/kg in the assay with Haemonchus contortus [1] was at least 95%. For the same compound, the inhibition at 0.0025 ppm (in assay [2]; with Haemonchus contortus [3]) was at least 90% in each case.

For `CC(C#N)(Cn1cc2ccc(Cl)c(Br)c2n1)NC(=O)c1ccc(OC(F)(F)F)cc1` (centres unmarked) [Compound 2.043, N-[2-(7-Bromo-6-chloro-2H-indazol-2-yl)-1-cyano-1-methylethyl]-4-trifluoromethoxybenzamide], the inhibition at 50 ppm in assay [4] is at least 90%. Further, the inhibition at 0.0025 ppm with Haemonchus contortus [3] is at least 90%.

With `CC(C#N)(Cn1nc2c(Br)c(Cl)cc(Cl)c2c1Br)NC(=O)c1ccc(OC(F)(F)F)cc1` (centres unmarked) [Compound 2.046, N-[1-Cyano-2-(3,7-dibromo-4,6-dichloro-2H-indazol-2-yl)-1-methylethyl]-4-trifluoromethoxybenzamide], the inhibition at 50 ppm in assay [4] was at least 90%. For the same compound, in the assay with Haemonchus contortus [3], the inhibition at 0.0025 ppm was at least 90%.

As for `CC(C#N)(Cn1cc2c(Cl)cc(Cl)c(Cl)c2n1)NC(=O)c1ccc(OC(F)(F)F)cc1` (centres unmarked) [Compound 2.048, N-[1-Cyano-1-methyl-2-(4,6,7-trichloro-2H-indazol-2-yl)ethyl]-4-trifluoromethoxybenzamide], in the assay on Haemonchus contortus [1], the inhibition in vivo at 1 mg/kg is at least 95%. In assay [4], the inhibition at 50 ppm is at least 90%. Moreover, the inhibition at 0.0025 ppm (in assay [2]; in the assay on Haemonchus contortus [3]) was at least 90% each time.

Turning to `CC(C#N)(Cn1cc2ncc(Cl)cc2n1)NC(=O)c1ccc(OC(F)(F)F)cc1` (centres unmarked) [Compound 3.005, N-[2-(6-Chloro-2H-pyrazolo[4,3-b]pyridin-2-yl)-1-cyano-1-methylethyl]-4-trifluoromethoxybenzamide], the inhibition in vivo at 0.5 mg/kg in the assay on Haemonchus contortus [1] is at least 95%. In addition, the inhibition at 50 ppm in assay [4] was at least 90%. The inhibition at 0.01 ppm (in assay [2]; in the assay on Haemonchus contortus [3]) was at least 90% in each case.

In the case of `CC(C#N)(Cn1nc2cc(Cl)cnc2c1Cl)NC(=O)c1ccc(OC(F)(F)F)cc1` (centres unmarked) [Compound 3.017, N-[1-Cyano-2-(3,6-dichloro-2H-pyrazolo[4,3-b]pyridin-2-yl)-1-methylethyl]-4-trifluoromethoxybenzamide], the inhibition in vivo at 0.5 mg/kg in the assay on Haemonchus contortus [1] was at least 95%. Also, the inhibition at 50 ppm in assay [4] was at least 90%. In the assay on Haemonchus contortus [3], the inhibition at 0.01 ppm was at least 90%.

`CC(C#N)(Cn1nc2cc(Cl)cnc2c1Br)NC(=O)c1ccc(OC(F)(F)F)cc1` (centres unmarked) [Compound 3.019, N-[2-(3-Bromo-6-chloro-2H-pyrazolo[4,3-b]pyridin-2-yl)-1-cyano-1-methylethyl]-4-trifluoromethoxybenzamide]: the inhibition in vivo at 0.5 mg/kg with Haemonchus contortus [1] is at least 95%. Besides, the inhibition at 50 ppm in assay [4] was at least 90%. Besides, in the assay on Haemonchus contortus [3] (test concentration 0.04 ppm), the inhibition at 0.04 ppm is at least 90%.

For the origin of these results see patent US8088801B2, “Aryloazol-2-yl cyanoethylamino compounds, method of making and method of using thereof” (Merial Limited, priority 2007, dated 2012).
